Results on 90 molecules are retold here after a melting point compilation (Tetko et al.; mined from patent text by program, amines drawn as free bases though some values may be those of a salt).

Molecules are shown by their SMILES.

Turning to `Cc1c(C)c2c(c(C)c1O)CC[C@@](C)(CO)O2`, the melting point fell in the range of 124 to 128 °C.

`O=C(/C=C/C=C/c1ccccc1Cl)NCCCCCC(=O)NO` returned a melting point of 129 to 131 °C.

With `Cc1cnc(NC(=O)C(C)C)o1`, the melting point is 109 to 110 °C.

In turn, `CC(C)(C)Sc1c(CC(C)(C)C(=O)O)n(Cc2ccc(Cl)cc2)c2cc(OCc3ccc4ccccc4n3)ccc12` had a melting point of 165 to 167 °C.

`CC1(C)Oc2ccc(C#Cc3ccccc3)cc2[C@@H](N)[C@@H]1O` (relative stereo) showed a melting point of 162 to 164 °C.

As for `Cc1nn(-c2ccc(C(F)(F)F)cn2)cc1CCCOc1cccc(CC(=O)O)c1`, the melting point fell in the range of 96 to 97 °C.

`Cc1nnc(F)c(-c2c(F)cc(F)cc2F)c1-c1cccs1` had a melting point of 71 to 74 °C.

For `COc1cc2nc(SCc3nccc(N4CCOCC4)c3Cl)[nH]c2cc1OC`, the melting point is 109 to 112 °C.

In turn, `CNC(=O)C(C)Nc1nc(-c2ccc(F)c3ccccc23)cc(C(C)C)n1` (stereo not given) showed a melting point of 141 to 142 °C.

`CS(=O)c1nnc2n1C=Cc1cc(Cl)ccc1C2` (stereo not given) gave a melting point of 183 to 185 °C.

In the case of `COc1cc(CCCN(C)Cc2ccc(OC)c(OC)c2)ccc1NC(=O)c1cccc2c(=O)c3cccc(OC)c3[nH]c12`, the melting point is 105 °C.

For `Cc1nc(C#N)ccc1N`, the melting point was 192 to 196 °C.

On to `Cc1nc(-c2ccc(Br)cc2)n(-c2ccc(S(C)(=O)=O)cc2)n1`, for which the melting point was in the range of 208 to 209 °C.

For `CC(=O)Nc1cc(C(F)(F)F)ccc1N1CCOCC1`, the melting point stood at 85 °C.

Turning to `COc1cc(C)c(C=O)c(OC)c1OC`, the melting point was in the range of 55 to 57 °C.

With `NC(=O)c1cnc2c(cc([N+](=O)[O-])c3nncc32)c(-c2ccccc2Cl)n1`, the melting point was over 340 °C.

In the case of `O=C(C#Cc1ccc(CCN2CCCC2)cc1)Nc1ccc(Cl)cc1`, the melting point was 153 to 154 °C.

`COc1cc2oc(=O)c3c(c2c(OC)c1OC)CCN(CC(C)=O)C3` registered a melting point of 114 to 116 °C.

`CCS(=O)(=O)Nc1cc(-n2cnc(C(F)(F)F)cc2=O)c(F)cc1C#N` came in with a melting point of 170 °C.

With `CCCOc1nc(C(F)(F)F)cc(=O)n1-c1cc(O)c(Cl)cc1F`, the melting point fell in the range of 122 to 123 °C.

Take `CCC1(CC)OC(=O)N(CCC(C)(C)NC[C@H](O)c2ccc(O)c(NS(C)(=O)=O)c2)c2ccccc21`: the melting point is 168 °C.

Turning to `CSC(SC)=C(C(=O)c1ccc(C(F)(F)F)cc1S(C)(=O)=O)C(=O)C1CC1`, the melting point was in the range of 137 to 139 °C.

`COc1cc2cc(F)cnc2cc1F` yielded a melting point of 98 °C.

As to `CCOC(=O)C1(c2ccc(Cl)cc2)OCC(c2ccc(F)cc2)(c2ccc(F)cc2)CO1`, the melting point was determined as 150 °C.

As to `Cc1nc2c(O)nc3ccccc3c2n1C`, the melting point is over 300 °C.

`CCCOc1ccc(CCNC(=O)C(F)(F)F)cc1S(=O)(=O)N=CN(C)C` came in with a melting point of 142 °C.

The molecule `COc1cc(OC)cc(-c2nc[nH]c2-c2ccc(OC(F)(F)F)c(N)c2)c1` yielded a melting point of 182 to 184 °C.

Take `CCOC(=O)C1=C(C)NC2=C(C(=O)OC2)C1c1ccccc1[N+](=O)[O-]` (stereo not given): the melting point is 220 to 222 °C.

`O=c1oc(-c2cccc(-c3ccccc3)c2)cc(O)c1SCCc1ccccc1` had a melting point of 93 to 94 °C.

The molecule `Clc1ccc(Cl)c(CN2CCNc3ncc(C4=CCNCC4)cc32)c1` displayed a melting point of 133 to 136 °C.

In turn, `Cc1ccc2c(c1)C(=O)N(C)Cc1c(C(N)=O)ncn1-2` had a melting point of 290 to 294 °C.

Consider `O=C(O)COC1=C(C(=O)Nc2cc(Cl)cc(Cl)c2)SC2=NCCCN21`, for which the melting point is 247 °C.

For the molecule `O=C(NCC12CCCN(CCC1)C2)c1c[nH]c2ccccc12`, the melting point was in the range of 139 to 142 °C.

In turn, `O=C(NC(Cc1ccccc1)P(O)O)OCc1ccccc1` (stereo not given) returned a melting point of 137 °C.

Regarding `N#Cc1c[nH]c(-c2ccccc2)c1C#N`, the melting point fell in the range of 197 to 200 °C.

For `C=CCNC(=O)C1CCc2cc(C3CCCCC3)ccc2O1` (stereo not given), the melting point lay within 93 to 94 °C.

Molecule `CO[C@H]([C@@H](C)C(=S)NCCc1ccccc1)[C@@H]1CCCN1C(=O)OC(C)(C)C` came in with a melting point of 107 to 109 °C.

In turn, `CC(C)(C)OC(=O)C=Cc1cncc2ccccc12` displayed a melting point of 81 to 83 °C.

Regarding `Cn1c(=O)c2[nH]c(C=Cc3cccc(C(F)(F)F)c3)nc2n(C)c1=O`, the melting point was over 300 °C.

Molecule `COC(=O)c1ccccc1-c1nc(COc2ccc(C=O)cc2OC)c(C)o1` showed a melting point of 129 to 130 °C.

In the case of `Cc1nc(N2CCN(Cc3ccc(C(F)(F)F)cc3)C2=O)sc1-c1ccno1`, the melting point was 153 to 154 °C.

Molecule `CCc1cccc2c3c([nH]c12)C(CC)(CC(=O)O)CCC3c1ccccc1` (stereo not given) came in with a melting point of 140 to 142 °C.

In turn, `CNS(=O)(=O)c1cccnc1S(=O)(=O)NC(=O)Nc1nc(OC)cc(OC)n1` gave a melting point of 147 to 148 °C.

As to `CC(C)C1(C)NC(c2ccccc2C(=O)O)=NC1=O` (stereo not given), the melting point was 162 to 163 °C.

`CNC(=O)Oc1ccc(C2CCC(=O)N2CCN2CCOCC2)cc1` (stereo not given) showed a melting point of 119 to 120 °C.

The molecule `Cc1nccn1N=Cc1ccc(N(C)C)cc1` came in with a melting point of 166 to 167 °C.

Turning to `CC1(C)OCc2cc(C(=O)CBr)ccc2O1`, the melting point lay within 52 to 54 °C.

Consider `COCCNc1ccc2c(c1)OC(c1ccccc1)C(c1ccc3c(c1)NC(=O)CO3)=C2` (stereo not given), for which the melting point lay in the range of 185 to 192 °C.

In turn, `CCOc1nsc(S(C)(=O)=O)c1Cl` came in with a melting point of 85 to 87 °C.

In turn, `CCCCNc1nc2cccc(C(=O)OC)c2n1Cc1ccccc1-c1ccccc1-c1nnn[nH]1` returned a melting point of 216 to 218 °C.

Consider `C#CC(CC)(CC)NC(=O)C(CCN1CCN(c2ccccc2OC)CC1)c1ccccc1` (stereo not given), for which the melting point lay within 110 to 112 °C.

Regarding `CCOC(=O)c1[nH]c(C)c(C)c1OCCCCl`, the melting point is 60 to 63 °C.

The molecule `COC(=O)c1coc(CN2C(=O)C3(COc4cc5onc(C)c5cc43)c3ccccc32)n1` (stereo not given) had a melting point of 148 to 152 °C.

`S=C(Nc1cccnc1)N1N=CCC1c1ccccc1` (stereo not given) had a melting point of 156 to 158 °C.

In the case of `OCCCc1ccc(OCC2CCCO2)cc1Oc1ncc(C(F)(F)F)cc1Cl` (stereo not given), the melting point was in the range of 91.3 to 93.6 °C.

Molecule `CCCC[C@H](NC(=O)[C@H](CC(C)C)NC(=O)OCc1ccc(F)cc1)C(=O)CSCc1ccco1` registered a melting point of 67 to 68 °C.

`OC(CN1CCC(c2c[nH]c3ccccc23)CC1)C1COc2ccccc2O1` (stereo not given) returned a melting point of 145 °C.

For the molecule `O=C1Nc2ccc(Cl)cc2C1c1ncnc2c1cnn2C1CCCC1` (stereo not given), the melting point is 304 to 306 °C.

For `CN(C)c1cc(CCl)nc(N)n1`, the melting point lay in the range of 127 to 129 °C.

The molecule `Cc1cc(Br)c(Cl)c(C(=O)O)c1` came in with a melting point of 160 °C.

`C=CC(=O)c1ccc(OCC(=O)O)c(Cl)c1Cl` showed a melting point of 111 to 113 °C.

The molecule `CC1(C)C(=O)NC(=O)c2c1ccc1nc(Nc3c(Cl)cccc3Cl)sc21` displayed a melting point of over 300 °C.

`CCCCCCCCCCCCCCN(CCCCCCCCCCCCCC)S(=O)(=O)c1ccc(C)cc1` had a melting point of 54 °C.

With `CCOC(=O)Nc1ccc(OCc2ccc(Cl)cc2)cc1[N+](=O)[O-]`, the melting point amounted to 122 °C.

In turn, `CCCCOc1ccc(S(=O)(=O)C2(C(=O)O)CCN(Cc3ccccc3)CC2)cc1` had a melting point of 144 °C.

`COc1ccc(CN2C(=O)c3c(-c4ccccc4Cl)cc4c(c3C2=O)c2cc(OC)ccc2n4CC(O)CO)c(OC)c1` (stereo not given) showed a melting point of 151 to 156 °C.

`Cn1c(C(F)(F)F)cc(=O)n(-c2cc(Oc3ccc[nH]c3=O)c(Cl)cc2F)c1=O` registered a melting point of 181 °C.

On to `NC(=O)c1cc(Br)ccc1Nc1ccncc1`, for which the melting point lay within 298 to 299 °C.

Consider `CCOc1csc2c(=O)c(S(C)=O)cn(C)c12` (stereo not given), for which the melting point fell in the range of 210 to 214 °C.

As to `C#CC#Cc1ccc(C(=O)O)cc1`, the melting point was over 230 °C.

On to `CCCCc1c(OC(=O)C(C)(C)C)n(-c2ccc(OC(C)=O)cc2)n(-c2ccccc2)c1=O`, for which the melting point lay in the range of 151 to 158 °C.

For `NC(=O)NCc1cc(Cl)cc(-c2csc(N=C(N)N)n2)n1`, the melting point is over 300 °C.

Consider `CCCC1CCC(/C(F)=C(\F)c2ccc(OCC)c(F)c2F)CC1` (stereo not given), for which the melting point worked out at 60 °C.

With `Cc1cc(Cl)c2c(O)c3c(=O)[nH][nH]c(=O)c3nc2c1`, the melting point was 197 to 199 °C.

In the case of `CN(C)c1ccc2c(c1)NCC2`, the melting point was 165 to 167 °C.

In turn, `CN(C)c1nc2c(NCc3ccccc3)ncnc2n1C1OC(CO)C(O)C1O` (stereo not given) yielded a melting point of 152 to 156 °C.

Molecule `COc1ccc(NC(=O)OCC2(C(C)=O)CC3C=CC2C3)cc1C` (stereo not given) displayed a melting point of 121 to 122 °C.

With `O=C(NCCO)c1ccnc(-c2cccc3cc(Cc4cccc(C(F)(F)F)c4)sc23)c1`, the melting point lay within 168 to 169 °C.

For the molecule `CCOC(=O)CCCCCOc1ccc(C=O)cc1`, the melting point was 33 to 35 °C.

`Cc1cc(Br)cnc1CCCn1nnc2cc(Cc3cccnc3)cnc21` gave a melting point of 109 to 110 °C.

For `c1ccc(CN2CCC(NC3CCOCC3)CC2)cc1`, the melting point was determined as 60 °C.

On to `CCCc1c(OCc2ccccc2)ccc2c1OC(CCC(=O)O)(CCC(=O)O)CC2=O`, for which the melting point was in the range of 202 to 205 °C.

As to `Oc1ccc(-c2ncco2)cc1`, the melting point was 167 to 168 °C.

Regarding `O=C1Nc2cc(C(F)(F)F)cc(C(F)(F)F)c2C1(O)c1cc(Cl)ccc1O` (stereo not given), the melting point lay in the range of 191 to 193 °C.

For the molecule `CC(C)(C)c1cc2c(c(C(C)(C)C)c1O)CC1(CCCCC1)S2`, the melting point worked out at 128 °C.

`COc1ccc(/C=C/C(=O)C2C(=O)CC(c3ccc(OC)cc3)C([N+](=O)[O-])C2c2ccccc2)cc1` (stereo not given) had a melting point of 164 to 165 °C.

For the molecule `O=C(O)COc1c(Br)cc(C(=O)c2ccc3ccccc3c2)cc1Br`, the melting point was in the range of 188 to 189 °C.

For `CN(C)Cc1ccc(CSCCNC(=C[N+](=O)[O-])NCC(O)c2ccccc2)o1` (stereo not given), the melting point was in the range of 115 to 116 °C.

In turn, `COc1c(Cl)ccc(-c2cc(N)c(Cl)c(C(=O)NOC3CCCO3)n2)c1F` (stereo not given) gave a melting point of 180 to 183 °C.

As to `COc1ccc2[nH]c3c(c2c1)CCSc1ccccc1-3`, the melting point was in the range of 151 to 154 °C.
